Data set [1] is described as follows: In vitro release test in 50% PBS (pH 7.4, 34 °C), HPLC. The format is physicochemical. The settings on record: for half-life: 50% PBS pH 7.4, 25 µM CTG probes, 100 µM prodrug 25, calculated as 0.69/kobs, read-out: t½ (half-life of payload release) (converted). The procedure:
(§1) Probes 14–15 and 20–21 stock solutions were prepared at 1000 µM (1 mM) in a 1:1 mixture of MeCN/water, followed by serial dilution with deionised water to give a 50 µM working concentration. Each experiment was run in triplicate after dilution of 0.5 mL of the stock solution with 0.5 mL of PBS (pH 7.4) or Tris buffer (pH 7.4), giving a final assay concentration of 25 µM for the probes. The samples were incubated at 34 °C to mimic the conditions found in SC tissue. Every day, a 2 µL aliquot of each sample was subjected to HPLC analysis using an Agilent 1260 Infinity instrument, with conditions as follows. Column: Agilent ZORBAX Eclipse Plus C18 Rapid Resolution, 3.5 μm (4.6 × 100 mm), pore size (95 Å); column temperature (35 °C). The mobile phases were solvent A: 0.1% TFA in ultrapure H2O and solvent B: 0.1% TFA in MeCN. The injection volume was 2 μL and the flow rate was kept at 1.0 mL/min. The analysis was performed using a gradient elution of 5–100% of solvent B in solvent A over 9 min, then maintained for a further 1 min at two wavelengths: 254 nm and 214 nm. The retention times of CTG and probes 14–15 and 20–21 were 4.13, 4.27, 4.93, 5.55, and 5.71 min, respectively. A calibration curve for the free CTG fluorophore was constructed over the concentration range of 10–100 µM at pH 7.4. The data were fit by linear regression to the equation y = 14.615x − 0.067, where y is the peak area of the analyte and x is the analyte concentration (µM). The correlation coefficient (R2) was computed as 0.999, confirming the linearity of used method under the specified measured concentrations.
Likewise, a test solution of prodrug 25 was incubated in 50% PBS at 100 µM final concentration, and analysed using the same HPLC method but with detection at 254 nm only. A higher concentration of 25 was used due to its relatively weaker absorption at 254 nm, compared with CTG. The retention times of RAL and prodrug 25 were 4.47 and 5.55 min, respectively. A calibration curve of RAL was constructed over the range 50–1000 µM. The data were fit by linear regression as before to give the equation y = 5.1961x − 20.064, with a similar goodness of fit (R^2 ≥ 0.999).
(§2) In vitro Release assays for probes 14–15 and 20–21 were conducted using pH and temperature conditions similar to those of SC tissue (pH 7.4 and 34 °C). Test compounds were dissolved in either MeCN/PBS (1:1, pH 7.4) or MeCN/Tris buffer (1:1, pH 7.4) at 25 µM, then incubated at 34 °C. Aliquots were taken daily and analysed by HPLC and LC-MS until complete fluorophore release was achieved. HPLC was preferred over fluorometric-based assay to study the stability of the synthesised probes because of the bleaching effect that may occur to the fluorophore over the long analysing periods. Photobleaching is the inability of the fluorophore to fluoresce due to the fluorophore instability upon repeated exposure to light over long periods. It can be a particular problem for fluorescence-based assays, thereby rationalising the choice of HPLC in the current work.
Similarly to the assays above, prodrug 25 (100 µM) was incubated in 50% PBS at 34 °C, and aliquots analysed daily by HPLC and LC-MS until full RAL release was achieved.

Data set [2] in a line: Pharmacokinetic study after single SC injection in BALB/c mice. The format is in vivo. The following applies: mouse, plasma level of the dosed compound, single SC 30 mg/kg, male BALB/c mice, n = 3. Here is the method:
The pharmacokinetic profile of prodrug 25 was evaluated in mice, in a study undertaken at WuXi AppTec. Prodrug 25 was dissolved in a sterile vehicle of DMSO/Solutol HS15/water (10:10:80) to give a clear solution with a final concentration of 6 mg/mL. The same procedure was used to prepare a 6 mg/mL solution of RAL as a control. Six male BALB/c mice were used, each weighing 18–25 g and aged between 7–9 weeks (three per group). A single 30 mg/kg dose of prodrug 25 was administered to each animal in the treatment group (subcutaneously, in the thoracic region). Similarly, RAL (30 mg/kg) was administered to each animal in the control group. Blood samples were taken at the time points indicated below, up to the experiment endpoint (96 h).
For each animal, blood samples (30 μL each) were collected from the submandibular or saphenous vein over a period of 96 h, at the following time points: zero/pre-dose; then 0.25, 0.5, 1, 2, 3, 4, 5, 6, 24, 48, and 96 h. All samples were transferred into pre-chilled commercial K2EDTA tubes and placed on wet ice until processing for plasma, which was obtained by centrifugation at 4 °C and 3200× g for 10 min, within 30 min of sampling. The plasma samples were transferred to polypropylene tubes, snap-frozen on dry ice, and kept at −70 ± 10 °C until LC-MS/MS analysis.
An LC-MS/MS method was developed to measure the concentrations of prodrug 25 and RAL in the biological matrix. Two mobile phases were used: mobile phase A (0.025% NH4OH and 2 mM NH4OAc in 95:5 v/v water/MeCN) and mobile phase B (0.025% NH4OH and 2 mM NH4OAc in 5:95 v/v water/MeCN). A UPLC method was performed using an LC-MS/MS-BM Triple Quad 6500 plus system with an ACQUITY UPLC BEH C18 1.7 μm column (2.1 × 50 mm) at a flow rate of 0.65 mL/min. The assay time was 2.5 min, and the solvent B composition was as follows: 10–100% (0.2–1.4 min), 30% (1.41–1.7 min), 95% (2.0–2.4 min), and 10% (2.41–2.5 min). The retention times for the prodrug, RAL and the internal standards (tolbutamide and verapamil) were 0.76, 1.04, 0.66, and 0.97 min, respectively. Quantification was performed by monitoring the transition of m/z 835.3 [M+H]^+ to 457.2 for prodrug 25, representing the cyclisation of the linker with the amidic RAL such as in side-product 22; whereas for RAL, the transition m/z 445.2 [M+H]^+ to 361.2 was followed, representing the loss of the 2-methyl-1,3,4-oxadiazole moiety as the main fragmentation pathway. For the internal standards, the m/z transition from 455.2 [M+H]^+ to 164.9 was used for verapamil (corresponding to formation of the verapamil fragment [CH2CH2-(3,4-dimethoxy phenyl)]^+), and for tolbutamide, the transition of m/z of 271.1 [M+H]^+ to 155.1 was used, representing formation of the [CH3-Ph-SO2]^+ fragment. […] The method was linear over the measured standard concentrations for 25 and RAL. The mean plasma concentration was determined for 25 and RAL (as metabolite or control) at each sampling time point. Pharmacokinetic parameters were then calculated by non-compartmental analysis of plasma concentration/time profiles using the Phoenix WinNonlin 6.3 software. The computed parameters were as follows: peak plasma concentration (Cmax); the time over which the initial concentration is reduced to half (t½); area under the plasma concentration versus time curve from time zero to 96 h (AUC 0–96 h); and mean residence time from time zero to 96 h (MRT 0–96 h).
Since in vitro models are not fully predictive of in vivo pharmacokinetics, especially for prodrugs, assessment of these characteristics still relies on in vivo studies. Therefore, the pharmacokinetic profile of prodrug 25 was evaluated in mice. Compound 25 and the control (RAL) were dissolved in DMSO/Solutol HS15/water (10:10:80). For a single SC injection of 25 (30 mg/kg) in BALB/c mice (n = 3), the plasma concentrations of prodrug and released RAL were measured at the following time points: zero/pre-dose; then 0.25, 0.5, 1, 2, 3, 4, 5, 6, 24, 48, and 96 h. […]

Data set [3] in a line: In vitro release test in 50% Tris buffer (pH 7.4, 34 °C), HPLC. The following applies: 25 µM probe. The class given is physicochemical. Here is the method:
as §1, §2

Where [4] appears, read: 50% PBS, pH 7.4, 34 °C, 25 µM probe, 1 d.
The mark [5] stands for this setting: 50% PBS, pH 7.4, 34 °C, 25 µM probe.

“And” between values parts separate entries of the source, which are not always exact repeats. Identical values can stand only once.

Turning to `Cc1nnc(C(=O)NC(C)(C)c2nc(C(=O)NCc3ccc(F)cc3)c(OCOC(=O)OCCCCCCNCCCc3cn(CCP(=O)(O)O)nn3)c(=O)n2C)o1` [Compound 25, 6-(((((4-((4-Fluorobenzyl)Carbamoyl)-1-Methyl-2-(2-(5-Methyl-1,3,4-Oxadiazole-2-Carboxa-Mido)Propan-2-Yl)-6-Oxo-1,6-Dihydropyrimidin-5yl)Oxy)Methoxy)Carbonyl)Oxy)-N-(3-(1-(2-Phosphonoethyl)-1H-1,2,3-Triazol-4-Yl)Propyl)Hexan-1-Aminium Chloride], the half-life in data set [1] (50% PBS buffer) is 463 h. Further, the “release kinetics (order)” value in data set [1] (50% PBS, pH 7.4) is recorded as “first-order kinetics”. In addition, the “time to maximal release of payload” value in data set [1] (50% PBS, pH 7.4, 34 °C) is 45 days. In data set [1] (50% PBS, pH 7.4, 34 °C, 100 µM prodrug, 1 d), the “RAL released after 1 d” value stood at 8.4%. In addition, the “RAL released after 10 d” value in data set [1] (50% PBS, pH 7.4, 34 °C, 100 µM prodrug, 10 d) is given as 31.5%. The “RAL released after 45 d (plateau)” value in data set [1] (50% PBS, pH 7.4, 34 °C, 100 µM prodrug, 45 d) is 82% and 82.1%. For the same compound, the “degree of side-product (27) formation” value in data set [1] (50% PBS, pH 7.4, 34 °C, hydrolysis of RAL oxadiazole, accounts for unreleased RAL) came out at 15.2%. For the same compound, in data set [2], the Cmax came out at 4550 ng/mL and the Tmax was 0.25 h. In addition, the AUC(0-t) in data set [2] (read-out: AUC 0–96 h) was 3270 ng·h/mL. Further, the half-life in data set [2] (read-out: t½ (converted)) was 0.85 h.

`C#CCCCNCCCCCOC(=O)OCOc1ccc2c(-c3ccc(C(=O)O)cc3C)c3ccc(=O)cc-3oc2c1.Cl` [Compound 14, N-(5-(((((9-(4-Carboxy-2-methylphenyl)-3-oxo-3H-xanthen-6-yl)oxy)methoxy)carbonyl)oxy)pentyl)pent-4-yn-1-aminium chloride]: the half-life in data set [1] (50% PBS buffer) was 40.6 h. The “CTG fluorophore released after 1 d” value in data set [1] (setting [4]) turned out to be 36%. For the same compound, the “CTG fluorophore released after 2 d” value in data set [1] (setting [5]) came out at 58%. The “CTG fluorophore released after 9 d” value in data set [1] (50% PBS, pH 7.4, 34 °C, 25 µM probe, 9 d) worked out at 98%. Moreover, the “CTG release after 1 d in 50% Tris buffer” value in data set [3] was determined as 89.2%.

Consider `Cc1cc(C(=O)O)ccc1-c1c2ccc(=O)cc-2oc2cc(OCOC(=O)OCCCCCNCCCc3cn(CCP(=O)(O)O)nn3)ccc12.Cl` [Compound 20, 5-(((((9-(4-Carboxy-2-Methylphenyl)-3-Oxo-3H-Xanthen-6-yl)Oxy)Methoxy)Carbonyl)Oxy)-N-(3-(1-(2-Phosphonoethyl)-1H-1,2,3-triazol-4-yl)Propyl)Pentan-1-Aminium Chloride], for which the half-life in data set [1] is 69.1 h. In addition, the “CTG fluorophore released after 1 d” value in data set [1] (setting [4]) came to 25%. In addition, the “CTG fluorophore released after 2 d” value in data set [1] (setting [5]) is recorded as 41%. In addition, the “CTG fluorophore released after 13 d” value in data set [1] (50% PBS, pH 7.4, 34 °C, 25 µM probe, 13 d) is reported as 98%. In addition, the “CTG release after 1 d in 50% Tris buffer” value in data set [3] came out at 82.5%.

On to `Cc1cc(C(=O)OC(C)(C)C)ccc1-c1c2ccc(=O)cc-2oc2cc(OCOC(=O)OCCCCCCNCCCc3cn(CCP(=O)(O)O)nn3)ccc12.Cl` [Compound 21, 6-(((((9-(4-(Tert-Butoxycarbonyl)-2-Methylphenyl)-3-Oxo-3H-Xanthen-6-yl)Oxy)Methoxy)Carbonyl)Oxy)-N-(3-(1-(2-Phosphonoethyl)-1H-1,2,3-Triazol-4-yl)Propyl)Hexan-1-Aminium Chloride], for which the half-life in data set [1] is 75.6 h. In addition, in data set [1] (50% PBS, pH 7.4, 34 °C), the “time to maximal release of payload” value is 15 days. Further, in data set [1] (setting [4]), the “CTG fluorophore released after 1 d” value came to 20%. Also, the “CTG fluorophore released after 2 d” value in data set [1] (setting [5]) came out at 33%. Also, the “CTG fluorophore released after 15 d” value in data set [1] (50% PBS, pH 7.4, 34 °C, 25 µM probe, 15 d) is recorded as 98%. The “CTG release after 1 d in 50% Tris buffer” value in data set [3] was determined as 80.9%.

For `C#CCCCNCCCCCCOC(=O)OCOc1ccc2c(-c3ccc(C(=O)O)cc3C)c3ccc(=O)cc-3oc2c1.Cl` [Compound 15, 6-(((((9-(4-Carboxy-2-methylphenyl)-3-oxo-3H-xanthen-6-yl)oxy)methoxy)carbonyl)oxy)-N-(pent-4-yn-1-yl)hexan-1-aminium chloride], the half-life in data set [1] is 47.5 h. Moreover, in data set [1] (setting [4]), the “CTG fluorophore released after 1 d” value is reported as 29%. Further, the “CTG fluorophore released after 2 d” value in data set [1] (setting [5]) came to 50%. For the same compound, in data set [1] (50% PBS, pH 7.4, 34 °C, 25 µM probe, 10 d), the “CTG fluorophore released after 10 d” value is 98%. The “CTG release after 1 d in 50% Tris buffer” value in data set [3] was 86.2%.

In general, Cmax refers to the peak of the concentration-time curve. The Tmax is the time from dosing to the highest level.

(Values after paper PMC10224444, “Novel Perspectives on the Design and Development of a Long-Acting Subcutaneous Raltegravir Injection for Treatment of HIV—In Vitro and In Vivo Evaluation” (Pharmaceutics, 2023).)
